Laboratory results: US8173693B2, “Benzenesulfonamide derivatives and pharmaceutical composition thereof” (Purzer Pharmaceutical Co., Ltd., priority 2010, dated 2012)

Legend:
[1] = tested on: lung carcinoma A549 cells; assay: SRB assay; assay type: cell-based; settings: Homo sapiens, 48 hr
[2] = tested on: COLO-205 Colon cancer; assay: MTT assay; assay type: cell-based; settings: Homo sapiens, 72 hr
Protocol: (§1) All cell lines were maintained in RPMI 1640 supplied with 10% fetal bovine serum and maintained in a humidified chamber at 37° C. containing 5% CO2. Then, all cell lines were treated with compounds for 72 hr and subsequently incubated with 0.4 mg/mL of MTT at 37° C. for 2 hr. The medium was removed, and DMSO was added to dissolve MTT precipitate. Cell proliferation was determined by measuring the optical density at 540 nm using a Thermomax microplate reader (Molecular Devices, Sunnyvale, Calif.), and the IC50 values of the benzenesulfonamide derivatives of the present invention were calculated.

[3] = tested on: HeLa Cervical cancer; assay: MTT assay; assay type: cell-based; settings: Homo sapiens, 72 hr
Protocol: as §1

[4] = tested on: lung carcinoma A549 cells; assay: In vitro migration assay (scratch); assay type: cell-based; settings: 0, 0.5, or 10 μM, 18 hr, microscope images
Protocol: Lung carcinoma A549 cells (BCRC 60074; BCRC) were maintained in RPMI 1640 supplied with 10% fetal bovine serum and maintained in a humidified chamber at 37° C. containing 5% CO2. All the cell lines were developed for two generations every week.
In the in vitro migration assay, a scratch was mechanically made on the monolayer of cells to form a line-shaped scratch with cytological exfoliation. The scratch may lead the edge of the cell monolayer to close.
When the monolayered A549 cells were saturated, a scratch was made using a 200-μL tip directly on the monolayer of the A549 cells. Cells were then treated with GM119 with a concentration of 0, 0.5, or 10 μM. After incubation for 18 hr, all the migrations were tracked with a microscope.

[5] = tested on: 4T1-Luc cells; assay: In vivo evaluation, short-time treatment, mice implanted with 4T1-Luc cells
Protocol: GM119 (25 mg/kg) was applied to a mouse implanted with 4T1-Luc cells for a short time, and then Taxol (10 mg/kg) was applied thereto to observe the effect of GM119 on the 4T1-Luc cells.
A suspension of 4T1-Luc cells in matrigel was injected into the breast adipocyte to obtain mice implanted with luciferase tumor cells. […] When the size of the tumor cells was achieved to 200-500 mm^3, the mice were divided into 2 groups, and the number of the mice in each group is ≧5. Then, 0 or 25 mg/kg of GM119 was abdominal-injected into the mice for 5 days, wherein GM119 was dissolved in cremophor, and the volume of injection to each mouse is 50 μl. Then, 0 or 10 mg/kg of Taxol was abdominal-injected into the mice for every 2 days until death of the mice. The weight and the number of the mice were recorded every day to analyze the change on the weight and the survival time of the mice. After the drugs were applied to the mice, the size of the tumor cells in the mice was evaluated with bioluminescence every two days.

[6] = tested on: H1299 non-small cell lung cancer; assay: SRB assay; assay type: cell-based; settings: Homo sapiens, NCI-H1299, 48 hr
Protocol: (§2) All cell lines were maintained in RPMI 1640 supplied with 10% fetal bovine serum into 96-well microtiter plates and maintained in a humidified chamber at 37° C. containing 5% CO2. After 24 hr, cell lines in partial wells were fixed in situ with 10% trichloroacetic acid (TCA) to represent a measurement at the time of drug addition (T0). Then, cell lines in other wells were incubated with the benzenesulfonamide derivatives of the present invention for an additional 48 hr, and fixed in situ with 10% TCA to represent a measurement at the time of stopping reaction (Tx). After rinsing the plates with PBS and air-drying, 0.4% sulforhodamine B solution (weight per volume in 1% acetic acid) was added to each well and the plates were incubated for 10 min at room temperature. Unbound sulforhodamine B was removed with 1% acetic acid and the plates were air-dried. Cells bound with sulforhodamine B was subsequently solubilized with 10 mM Tris base (Trizma; Sigma). Cell proliferation was determined by measuring the optical density at 515 nm using a Thermomax microplate reader (Molecular Devices, Sunnyvale, Calif.). The half-inhibition concention (GI50) of the benzenesulfonamide derivatives of the present invention was obtained from the detected optical density.

[7] = tested on: MCF-7/ADR multidrug-resistant breast cancer; assay: SRB assay; assay type: cell-based; settings: Homo sapiens, NCI/ADR-RES
Protocol: as §2

[8] = tested on: CL1-5 non-small cell lung cancer; assay: SRB assay; assay type: cell-based; settings: 48 hr
Protocol: as §2

[9] = tested on: HeLa Cervical cancer; assay: SRB assay; assay type: cell-based; settings: Homo sapiens, 48 hr
Protocol: as §2

[10] = tested on: Human hepatoblastoma HepG2 cells; assay: MTT assay; assay type: cell-based; settings: 72 hr, read-out: IC50 HepaG2
Protocol: (§3) Human Bladder Cancer TSGH cells, Human hepatoblastoma HepG2 cells, Human colorectal adenocarcinoma HT-29 cells, human nasopharyngeal carcinoma KB cells, Human gastric adenocarcinoma AGS cells, Human breast carcinoma MCF-7 cells, lung carcinoma A549 cells, and Human prostate carcinoma PC-3 cells were used in the preliminary cytotoxicity assays of the benzenesulfonamide derivatives of the present invention, and the inhibition activity against the tumor cells was evaluated.
as §1

[11] = tested on: Human colorectal adenocarcinoma HT-29 cells; assay: MTT assay; assay type: cell-based; settings: 72 hr
Protocol: as §3, §1

[12] = tested on: A549 non-small cell lung cancer; assay: MTT assay; assay type: cell-based; settings: Homo sapiens, 72 hr
Protocol: as §3, §1

[13] = tested on: Human prostate carcinoma PC-3 cells; assay: MTT assay; assay type: cell-based; settings: 72 hr
Protocol: as §3, §1

[14] = tested on: human nasopharyngeal carcinoma KB cells; assay: MTT assay; assay type: cell-based
Protocol: as §3, §1

[15] = tested on: Human breast carcinoma MCF-7 cells; assay: MTT assay; assay type: cell-based; settings: MCF7, 72 hr
Protocol: as §3, §1

[16] = tested on: Human gastric adenocarcinoma AGS cells; assay: MTT assay; assay type: cell-based; settings: 72 hr
Protocol: as §3, §1

[17] = tested on: Human Bladder Cancer TSGH cells; assay: MTT assay; assay type: cell-based; settings: 72 hr
Protocol: as §3, §1

[18] = tested on: 4T1-Luc cells; assay: In vitro analysis on cell morphology; assay type: cell-based, murine; settings: 48 hr
Protocol: After the 4T1-Luc cells were treated with GM119, a phase-contrast microscope was used to observe the cell morphology of the 4T1-Luc cells. Cover glasses were placed in 6-well plates, and each well was seeded with 50,000 tumor cells. The tumor cells were developed in medium with 10% fetal bovine serum, and then treated with 0, 0.01, 0.1, 1, or 10 μM of GM119 for 48 hr. The cells were stained with Giemsa Stain solution (0.38 g of Giemsa powder, 15% of methanol, and 5% of glycerol). After the cells were washed, dried, and sealed, the images of the cells were photographed with a phase-contrast microscope.

Compound `COc1ccc(S(=O)(=O)Nc2cccc3c2[nH]c2c(C)ccc(C)c23)cc1` [Compound 6c, N-(5,8-Dimethyl-9H-carbazol-1-yl)-4-methoxybenzenesulfonamide] has an IC50 [1] of 10000 nM, an IC50 [2] of 50 nM and an IC50 [3] of 600 nM. For the same compound, the “inhibition on the migration of the A549 cells” value [4] was “the inhibition on the migration of the A549 cells was greater as the concentration of the GM119 was increased”, the “survival of the mice” value ([5]; short time: GM119 25 mg/kg abdominal-injected for 5 days, then Taxol 10 mg/kg every 2 days, FIG. 2) was “the survival of the mice can be greatly increased” and the “growth of the tumor cells (bioluminescence)” value ([5]; short-time treatment, GM119 25 mg/kg, Taxol 10 mg/kg) was “the growth of the tumor cells can be inhibited”. It also gave a GI50 [6] of 460 nM, a GI50 [7] of 390 nM and a GI50 [8] of 260 nM. The GI50 [9] was 190 nM, the IC50 [10] was 400 nM and the IC50 [11] was 400 nM. The IC50 [12] was 1120 nM, the IC50 [13] was 240 nM and the IC50 ([14]; Homo sapiens, KB, MTT assay, 72 hr) was 800 nM. The “inhibitory activity against KB cells compared with E7070” value ([14]; own MTT value vs literature value) was “has higher inhibitory activity against KB cells than E7070”, the IC50 [15] was 240 nM and the IC50 [16] was 1400 nM. For the same compound, the IC50 [17] was 500 nM, the “growth of the 4T1 cells (microscope images)” value ([18]; 0.01 μM) was “the growth of the 4T1 cells can be inhibited” and the “inhibition of the 4T1 cells (microscope images)” value ([18]; 10 μM) was “the inhibition of the 4T1 cells is apparent”.
